Biological target: T1, hFXR (Homo sapiens, UniProt Q96RI1)
T1 construct: expressed in transfected cells; host or cells: CV-1 cells
T1 sequence (Q96RI1 1-486): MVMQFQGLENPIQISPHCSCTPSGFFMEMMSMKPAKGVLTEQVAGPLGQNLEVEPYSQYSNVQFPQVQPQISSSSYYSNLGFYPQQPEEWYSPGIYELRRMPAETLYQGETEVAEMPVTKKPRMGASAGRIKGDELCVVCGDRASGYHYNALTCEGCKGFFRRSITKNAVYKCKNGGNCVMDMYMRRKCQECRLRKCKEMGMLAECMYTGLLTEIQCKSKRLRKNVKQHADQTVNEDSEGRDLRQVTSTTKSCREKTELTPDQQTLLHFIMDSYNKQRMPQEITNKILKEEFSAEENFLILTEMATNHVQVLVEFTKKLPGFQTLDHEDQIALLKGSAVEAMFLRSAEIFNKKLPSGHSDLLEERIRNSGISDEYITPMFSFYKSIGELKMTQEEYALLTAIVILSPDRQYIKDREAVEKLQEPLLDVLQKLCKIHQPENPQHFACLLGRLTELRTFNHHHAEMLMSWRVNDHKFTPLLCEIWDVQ
T1 sequence (P19793 1-462 partner): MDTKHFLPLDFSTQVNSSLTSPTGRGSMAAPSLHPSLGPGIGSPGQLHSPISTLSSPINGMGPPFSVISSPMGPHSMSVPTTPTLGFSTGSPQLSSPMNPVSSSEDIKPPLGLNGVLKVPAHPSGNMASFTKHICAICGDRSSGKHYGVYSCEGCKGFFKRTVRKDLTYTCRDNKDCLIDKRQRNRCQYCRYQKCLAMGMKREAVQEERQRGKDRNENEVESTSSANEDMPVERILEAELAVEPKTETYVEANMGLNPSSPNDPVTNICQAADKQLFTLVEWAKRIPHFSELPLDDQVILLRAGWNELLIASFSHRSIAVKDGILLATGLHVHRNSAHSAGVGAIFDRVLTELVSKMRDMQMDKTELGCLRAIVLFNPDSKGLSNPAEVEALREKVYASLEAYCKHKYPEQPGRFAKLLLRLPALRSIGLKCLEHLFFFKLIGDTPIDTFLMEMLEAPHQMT
Test: In Vitro FXR Assay (TK): TK-ECRE-luc reporter in transfected CV-1 cells
Type: cell-based
Details: 18 hrs incubation, luminescence
Method in brief: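 Reporter gene assay: CV-1 cells co-expressing hFXR, hRXR, TK-ECRE-luc and pCMX-YFP after overnight transfection in charcoal-stripped serum. Treatment with serially diluted compounds lasted 18 hrs at 37 °C, followed by cell lysis and a luminescence measurement.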

Compound | EC50 [nM]
CCOC(=O)N[C@H]1CC[C@H](C(=O)N(C[C@H]2CC[C@H](c3ccc(OC)c(C)c3)CC2)c2cccc(-c3cnn(C(C)C)c3)c2)CC1 [Compound 6.01, Ethyl (trans-4-((3-(1-isopropyl-1H-pyrazol-4-yl)phenyl)((trans-4-(4-methoxy-3-methylphenyl)cyclohexyl)meth-yl)carbamoyl)cyclohexyl)carbamate] | ≤ 50
CCc1nc(-c2ccnc(N(C[C@H]3CC[C@H](c4ccc(OC)c(C)c4)CC3)C(=O)[C@H]3CC[C@H](OC(=O)NCC(C)(C)O)CC3)c2)co1 [Compound 2.49, trans-4-((4-(2-Ethyloxazol-4-yl)pyridin-2-yl)((trans-4-(4-methoxy-3-methylphenyl)cyclohexyl)methyl)carbamoyl)cyclohexyl (2-hydroxy-2-methylpropyl)carbamate] | ≤ 50
COc1ccc([C@H]2CC[C@H](CN(c3cc(-c4cnn(C(C)C)c4)ccn3)C(=O)[C@H]3CC[C@H](OC(=O)NC(C)C)CC3)CC2)cc1C [Compound 2.17, trans-4-((4-(1-Isopropyl-1H-pyrazol-4-yl)pyridin-2-yl)(((trans)-4-(4-methoxy-3-methylphenyl)cyclohexyl)methyl)carbamoyl) cyclohexyl isopropylcarbamate] | ≤ 50
Cn1ccc2nc([C@H]3CC[C@H](CN(c4cccc(-c5cnc(C6CC6)s5)c4)C(=O)[C@H]4CC[C@H](OC(=O)N5CC(O)C5)CC4)CC3)ccc21 [Compound 5.13, trans-4-((3-(2-Cyclopropylthiazol-5-yl)phenyl)(((trans)-4-(1-methyl-1H-pyrrolo[3,2-b]pyridin-5-yl)cyclohexyl)methyl)carbamoyl) cyclohexyl 3-hydroxyazetidine-1-carboxylate] | ≤ 50
COc1ccc([C@H]2CC[C@H](CN(c3cccc(-c4cnn(C(C)C)c4)c3)C(=O)[C@H]3CC[C@H](OC(=O)NCC(C)(C)O)CC3)CC2)nc1C [Compound 5.01, trans-4-((3-(1-Isopropyl-1H-pyrazol-4-yl)phenyl)((trans-4-(5-methoxy-6-methylpyridin-2-yl)cyclohexyl)methyl)carbamoyl)cyclohexyl (2-hydroxy-2-methylpropyl) carbamate] | ≤ 50
COc1ccc([C@H]2CC[C@H](CN(c3cc(-c4cnc(C5CC5)s4)ccn3)C(=O)[C@H]3CC[C@H](OC(=O)N4CCN(C)CC4)CC3)CC2)cc1C [Compound 2.27, trans-4-((4-(2-Cyclopropylthiazol-5-yl)pyridin-2-yl)(((trans)-4-(4-methoxy-3-methylphenyl)cyclohexyl)methyl)carbamoyl)cyclohexyl 4-methylpiperazine-1-carboxylate] | ≤ 50
COc1ccc([C@H]2CC[C@H](CN(c3cccc(-c4cnn(C(C)C)c4)c3)C(=O)[C@H]3CC[C@H](NC(=O)C4CCCCC4)CC3)CC2)cc1C [Compound 10.01, trans-4-(Cyclohexanecarboxamido)-N-(3-(1-isopropyl-1H-pyrazol-4-yl)phenyl)-N-((trans-4-(4-methoxy-3-methylphenyl)cyclohexyl)methyl) cyclohexanecarboxamide] | 50 to 1000
COc1ccc([C@H]2CC[C@H](CN(c3cc(-c4cnn(C(C)C)c4)ccn3)C(=O)[C@H]3CC[C@H](OC(=O)NC[C@H](F)CO)CC3)CC2)cc1C [Compound 2.30, trans-4-((4-(1-Isopropyl-1H-pyrazol-4-yl)pyridin-2-yl)(((trans)-4-(4-methoxy-3-methylphenyl)cyclohexyl)methyl)carbamoyl) cyclohexyl((S)-2-fluoro-3-hydroxypropyl)carbamate] | ≤ 50
COc1ccc([C@H]2CC[C@H](CN(c3cc(-c4cnc(C(C)C)o4)ccn3)C(=O)[C@H]3CC[C@H](OC(=O)N4CC(O)C4)CC3)CC2)cc1C [Compound 2.37, trans-4-((4-(2-Isopropyloxazol-5-yl)pyridin-2-yl)((trans-4-(4-methoxy-3-methylphenyl)cyclohexyl)methyl)carbamoyl)cyclohexyl 3-hydroxyazetidine-1-carboxylate] | ≤ 50
COc1ccc([C@H]2CC[C@H](CN(c3cc(-c4cnn(C(C)C)c4)ccn3)C(=O)[C@H]3CC[C@H](OCCCO)CC3)CC2)cc1C [Compound 16.01, trans-4-(3-Hydroxypropoxy)-N-(4-(1-isopropyl-1H-pyrazol-4-yl)pyridin-2-yl)-N-((trans-4-(4-methoxy-3-methylphenyl)cyclohexyl)methyl)cyclo-hexanecarboxamide] | ≤ 50

Next, values leading:

EC50 [nM] | Compound
≤ 50 | COc1ccc(C23CCC(CN(c4cc(-n5cnc(C(C)C)n5)ccn4)C(=O)[C@H]4CC[C@H](OC(=O)N5CC(O)C5)CC4)(CC2)CC3)cc1C [Compound 4.18, 4-((4-(3-Isopropyl-1H-1,2,4-triazol-1-yl)pyridin-2-yl)((4-(4-methoxy-3-methylphenyl)bicyclo [2.2.2]octan-1-yl)methyl)carbamoyl)cyclohexyl 3-hydroxyazetidine-trans-1-carboxylate]
≤ 50 | COc1ccc(C23CCC(CN(c4cc(-c5cnn(C(C)C)c5)ccn4)C(=O)[C@H]4CC[C@H](OC(=O)N5CCC5)CC4)(CC2)CC3)cc1C [Compound 4.52, 4-((4-(1-Isopropyl-1H-pyrazol-4-yl)pyridin-2-yl) ((4-(4-methoxy-3-methylphenyl)bicyclo [2.2.2]octan-1-yl)methyl)carbamoyl)cyclohexyl trans-azetidine-1-carboxylate]
≤ 50 | COc1ccc(C23CCC(CN(c4cc(-c5cnn(C(C)C)c5)ccn4)C(=O)[C@H]4CC[C@H](OC(=O)NCC(C)(C)O)CC4)(CC2)CC3)cc1C [Compound 4.06, 4-((4-(1-Isopropyl-1H-pyrazol-4-yl)pyridin-2-yl)((4-(4-methoxy-3-methylphenyl)bicyclo [2.2.2]octan-1-yl)methyl)carbamoyl)cyclohexyl (2-hydroxy-2-methylpropyl)trans-carbamate]
≤ 50 | COc1ccc(C23CCC(CN(c4cc(-c5cnc(C(C)C)s5)ccn4)C(=O)[C@H]4CC[C@H](OC(=O)NCCCO)CC4)(CC2)CC3)cc1C [Compound 4.33, 4-((4-(2-Isopropylthiazol-5-yl)pyridin-2-yl)((4-(4-methoxy-3-methylphenyl)bicyclo[2.2.2]octan-1-yl)methyl)carbamoyl)(trans-cyclohexyl) (3-hydroxypropyl)carbamate]
≤ 50 | COc1ccc(C23CCC(CN(c4ccc(F)c(-c5cnn(C(C)C)c5)c4)C(=O)[C@H]4CC[C@H](OC(=O)NCCCO)CC4)(CC2)CC3)cc1C [Compound 25.08, 4-((4-Fluoro-3-(1-isopropyl-1H-pyrazol-4-yl)phenyl)((4-(4-methoxy-3-methylphenyl)bicyclo[2.2.2]octan-1-yl)methyl)carbamoyl)cyclohexyl trans-(3-hydroxypropyl)carbamate]
≤ 50 | COc1ccc(C23CCC(CN(c4cc(-c5noc(C(C)C)n5)ccn4)C(=O)[C@H]4CC[C@H](OC(=O)N5CC(O)C5)CC4)(CC2)CC3)cc1C [Compound 26.14, 4-((4-(5-Isopropyl-1,2,4-oxadiazol-3-yl)pyridin-2-yl)((4-(4-methoxy-3-methylphenyl)bicyclo[2.2.2]octan-1-yl)methyl)carbamoyl)cyclohexyl trans-3-hydroxyazetidine-1-carboxylate]
≤ 50 | COc1ccc(C23CCC(CN(c4cc(-c5cnc(C(C)C)s5)ccn4)C(=O)[C@H]4CC[C@H](OC(=O)NCCO)CC4)(CC2)CC3)cc1C [Compound 4.36, 4-((4-(2-Isopropylthiazol-5-yl)pyridin-2-yl)((4-(4-methoxy-3-methylphenyl)bicyclo[2.2.2]octan-1-yl)methyl)carbamoyl) cyclohexyl(2-hydroxyethyl)trans-carbamate]
≤ 50 | COc1ccc(C23CCC(CN(c4cc(-c5cnc(C(C)C)s5)ccn4)C(=O)[C@H]4CC[C@H](OC(=O)N5CC(OCCO)C5)CC4)(CC2)CC3)cc1C [Compound 4.38, 4-((4-(2-Isopropylthiazol-5-yl)pyridin-2-yl)((4-(4-methoxy-3-methylphenyl)bicyclo[2.2.2]octan-1-yl)methyl)carbamoyl) (trans-cyclohexyl) 3-(2-hydroxyethoxy)azetidine-1-carboxylate]
≤ 50 | COc1ccc(C23CCC(CN(c4ccnc(-c5cnn(C6(C)CCC6)c5)c4)C(=O)[C@H]4CC[C@H](OC(=O)N5CC(O)C5)CC4)(CC2)CC3)cc1C [Compound 25.23, 4-(((4-(4-Methoxy-3-methylphenyl)bicyclo[2.2.2]octan-1-yl)methyl)(2-(1-(1-methylcyclobutyl)-1H-pyrazol-4-yl)pyridin-4-yl)carbamoyl)cyclohexyl trans-3-hydroxyazetidine-1-carboxylate]
≤ 50 | COc1ccc(C23CCC(CN(c4cc(-c5cnn(C6CCC6)c5)ncn4)C(=O)[C@H]4CC[C@H](OC(=O)N5CC(CO)C5)CC4)(CC2)CC3)cc1C [Compound 23.24]

Source: patent US20220056019A1, “FARNESOID X RECEPTOR AGONISTS AND USES THEREOF” (Metacrine, Inc., priority 2018, published 2022)
